From patent US12528792B2, “Sulfonamide compounds and the use thereof in the treatment of cancer” (TROBIO THERAPEUTICS PTY LTD, priority 2019, dated 2026)
Like-named read-outs stand apart in the source and are kept apart here.

Columns and labels:
Assay type in all cases: cell-based
[1] = tested on: A2780 ovarian cancer cells; assay: Drug combination screen, 6x6 dose matrix, Bliss-independence synergy; parameters: key to Max. Synergy, Vinorelbine: Bliss synergy score; 0 = no synergy, negative = antagonism; highest in matrix; key to Total Synergy, Vinorelbine: sum of Bliss synergy scores across the dose matrix; settings: 72 h (26*: 96-well plate format); for Max. Synergy, Paclitaxel / Total Synergy, Paclitaxel: combination with paclitaxel; for Max. Synergy, Paclitaxel / Max. Synergy, Vinorelbine: Bliss score; for Total Synergy, Paclitaxel / Total Synergy, Vinorelbine: sum of Bliss scores of the matrix; for Max. Synergy, Vinorelbine / Total Synergy, Vinorelbine: combination with vinorelbine
Experimental: (§1) In vitro growth inhibition assays were performed as technical triplicate in two independent experiments and cell viability was assessed by Alamar Blue assay readout. Briefly, cells in logarithmic phase growth were seeded in 384-well plates in a 50 μL/well assay volume. Cells were seeded at 1,200 cells/well using a Multidrop 384 (Thermo Scientific) and allowed to adhere at 37° C. with 5% CO2, in a humidified atmosphere (LiCONIC incubator). After 24 hours incubation, test compounds, positive control (20 μM Thonzonium bromide, 100% kill) and vehicle only (0.4% DMSO) were added into wells of each assay plate using a Tecan HP D300 Digital Dispenser in technical triplicate under minimum light. Following 72 hours drug exposure, metabolic activity was detected by addition of 10% (v/v) Alamar Blue reagent to each assay well using a Multidrop Cambi (Thermo Scientific) and determined by measurement of fluorescence intensity (excitation 555 nm, emission 585 nm) using an EnSpire (Perkin Elmer) plate reader. Readings were performed at 0 hour (background) and after 6 hours alamar blue incubation at 37° C.
The two drugs in each combination matrix were dispensed using a Tecan HP D300 Digital Dispenser. Assays were performed in triplicate for each drug combination (test compound/vinorelbine and test compound/paclitaxel combinations). Synergistic drug interactions were calculated from the averaged cell viability data using the methodology described below.
Synergistic drug interactions were determined for each pa1rw1se drug combination by applying the Bliss-independence model that assumes independence of drug mechanisms. Prior to the analysis, percent cell viability (CV) for combination data were converted to fractional cell growth inhibition (GI) by the formula: […]
The Bliss additivism model was used to calculate a predicted combined response C to two single agents with responses A and B (using GI values), as follows:
The final score for any combination was reported as the difference between the value predicted by the additive model and the experimentally observed value, normalised to 100. Using GI values the maximum possible synergy score is 100, with 0 indicating no synergy and negative indicating possible antagonism. Scores were also reported as a “Max synergy” score, which is the highest individual synergy score for each combination matrix, and a “Total synergy” score, which was obtained by summation of each individual synergy score for the matrix.
The single agent IC50 values for the test compounds and their synergy scores in combination with vinorelbine and paclitaxel are presented in Table 4. The data is listed as IC50 mean from technical triplicates for two independent experiments. The averaged IC50 concentrations for the single agents from both runs were then used to generate the 6×6 dose matrices in the synergy experiment. Synergy scores for each drug combination were calculated by the Bliss-independence model. The maximum synergy and total synergy scores for each combination in A2780 cells are listed.

[2] = tested on: SK-N-SH neuroblastoma cells; assay: Cytotoxicity assay, MTS viability; settings: Homo sapiens, 72 hours
Experimental: The ability of compounds of the disclosure to inhibit the proliferation of SK—N—SH neuroblastoma cells was assessed. The SK—N—SH cell line was maintained as a monolayer in Dulbeccos Modified Eagles medium (DMEM) supplemented with 10% foetal bovine serum (FBS) and grown at 37° C. in a humidified atmosphere with 5% CO2. For the cytotoxicity assay, SK—N—SH cells were seeded at a density of 2×10^3 cells per well in 96-well plates. The cells were treated with serial dilutions of the test compounds (1:2 starting concentration 100 µM) and viability measured after 72 hours using a standard MTS assay. Cell viability was normalised to control (vehicle alone) and dose response curves and EC50 values (Table 3) were determined using Graph Pad Prism 6.

[3] = tested on: A2780 (ovarian) cells; assay: Anti-proliferative activity, Cell-Titre luminescent viability assay; settings: Homo sapiens, 72 h exposure, Cell-Titre luminescent reagent
Procedure, shortened: (§2)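 Cells attached 24 h at 37° C., 5% CO2, then treated 72 h with compound at 0.3–100 μM or 0.1–30 μM. Viability read by Cell-Titre luminescence after 30 min reagent exposure, normalized to vehicle; EC50 from variable-slope sigmoidal nonlinear regression.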

[4] = tested on: A549 (NSCLC) cells; assay: as above; settings: Homo sapiens, 72 h exposure, Cell-Titre luminescent reagent
Procedure, shortened: as §2

[5] = tested on: A2780 ovarian cancer cells; assay: In vitro growth inhibition assay, Alamar Blue, single agent IC50; settings: Homo sapiens
Experimental: as §1
Each drug was tested as a 10-point concentration series with two-fold serial dilutions of each drug. The concentration series for compounds 6 and 8 was 100, 50, 25, 12.5, 6.25, 3.125, 1.563, 0.781, 0.391 and 0.195 μM and for compounds 24, 43 and 48 was 50, 25, 12.5, 6.25, 3.125, 1.563, 0.781, 0.391, 0.195 and 0.098 μM for the two independent experiments. The concentration series for vinorelbine and paclitaxel was 100, 50, 25, 12.5, 6.25, 3.125, 1.5625, 0.781, 0.391 and 0.195 nM. Thonzonium bromide (20 μM) and 0.4% DMSO were used as positive and vehicle controls, respectively. The IC50 value was calculated by derivation of the best-fit line using a sigmoidal dose response model (Activity Base Software Suite, IDES).
Activity Base software suite (IDES, version 8.3.0.175) was used for data analysis. Cell survival is expressed as a percentage of viable cells. IC50 concentrations were calculated by derivation of the best-fit line using a sigmoidal dose response model with technical triplicate data points.

[6] = molecular target: T1, Tpm3.1-containing actin microfilaments in SK-N-SH neuroblastoma cells (Homo sapiens, UniProt P06753); assay: Imaging and quantitation of Tpm3.1 mCherry and 488-Atto-Phalloidin actin filaments; settings: 24 hours post-treatment, two concentrations, FIG. 2 and FIG. 3
T1 construct: expressed in transfected cells; host or cells: SK-N-SH neuroblastoma cells
T1 sequence (P06753 1-248 isoform P06753-2): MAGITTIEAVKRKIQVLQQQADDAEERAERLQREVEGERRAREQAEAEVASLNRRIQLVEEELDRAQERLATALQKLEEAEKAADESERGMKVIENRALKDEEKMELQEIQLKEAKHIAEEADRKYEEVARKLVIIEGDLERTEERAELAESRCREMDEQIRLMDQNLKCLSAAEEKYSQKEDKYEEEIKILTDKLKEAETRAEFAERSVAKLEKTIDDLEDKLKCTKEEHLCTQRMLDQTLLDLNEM
Experimental: The ability of compounds 24, 26 and 143 to disrupt Tpm3.1-containing actin microfilaments was investigated in SK—N—SH neuroblastoma cells that express Tpm3.1 labelled with the mCherry fluorophore. Cells were seeded at 3×10^4 cells per well in a volume of 1000 μL complete media onto a 12 well plate containing 13 mm coverslips and left to plate down for 24 hours prior to treatment. Cells were then treated with DMSO and two concentrations of the test compounds. 24 hours post-treatment, cells were fixed with 16% paraformaldehyde (PBS) and stained with 488-Atto-Phalloidin to visualise the actin filament bundles. Single plane images were obtained using the Olympus IX83 epi-fluorescence microscope. Ten fields of view were collected for both Tpm3.1 mCherry fluorophore (FIG. 2) and 488-Atto-Phalloidin (FIG. 3) with each treatment condition.
Quantitation of either Tpm3.1 mCherry filaments or 488-Atto-Phalloidin filaments was performed using ImageJ 1.52p software (ImageJ, NIH). The mean pixel intensity from a cell was measured by using a line across the entire cell cytoplasmic area above or below the nuclear region. The line was made to cross the filament bundles at a 90° angle for the measurement rather than run along a single filament. A total of n=100 cells were measured from ten fields of view. […]

[7] = tested on: MIA PaCa-2 (pancreatic) cells; assay: Anti-proliferative activity, Cell-Titre luminescent viability assay; settings: Homo sapiens, 72 h exposure, Cell-Titre luminescent reagent
Procedure, shortened: as §2

[8] = tested on: Caco-2 (colorectal) cells; assay: as above; settings: Homo sapiens, 72 h exposure, Cell-Titre luminescent reagent
Procedure, shortened: as §2

[9] = tested on: PC3 (prostate) cells; assay: as above; settings: 72 h exposure, Cell-Titre luminescent reagent
Procedure, shortened: as §2

[10] = 72 h drug exposure, Alamar Blue, 384-well (26*: 96-well plate format), read-out: Single-agent IC50
[11] = single agent, 96-well plate format, read-out: Dose matrix IC50 concentrations

| SMILES | IC50 [3] | IC50 [4] | IC50 [5, 10] | IC50 [5, 11] | IC50 [7] | IC50 [8] | IC50 [9] | Max. Synergy, Paclitaxel [1] | Total Synergy, Paclitaxel [1] | Max. Synergy, Vinorelbine [1] | Total Synergy, Vinorelbine [1] | IC50 [2] | Disruption of Tpm3.1-containing actin microfilaments [6] |
| --- | --- | --- | --- | --- | --- | --- | --- | --- | --- | --- | --- | --- | --- |
| O=C(Nc1ccc(C(F)(F)F)cc1)C1CCN(S(=O)(=O)c2ccc3[nH]ccc3c2)CC1 [Compound 8, 1-((1H-indol-5-yl)sulfonyl)-N-(4-(trifluoromethyl)phenyl)piperidine-4-carboxamide] | 11.7 µM | 12.1 µM | 14.5 µM | – | – | – | – | 8.95 | −3.62 | 32.29 | 225.43 | 11.4 µM | – |
| Cc1ccc(NC(=O)c2ccn(S(=O)(=O)c3ccc4[nH]ccc4c3)c2)cc1 [Compound 43, 1-((1H-indol-5-yl)sulfonyl)-N-(p-tolyl)-1H-pyrrole-3-carboxamide] | 1.9 µM | 18 µM | 13 µM | – | – | – | – | 12.46 | 3.06 | 10.94 | 73.13 | 17.4 µM | – |
| CCC(C)c1ccc(NC(=O)c2ccn(S(=O)(=O)c3ccc4[nH]ccc4c3)c2)cc1 (stereo not shown) [Compound 24, 1-((1H-indol-5-yl)sulfonyl)-N-(4-(sec-butyl)phenyl)-1H-pyrrole-3-carboxamide] | 2.5 µM | 6 µM | 7.54 µM | – | 8.16 µM | 8.45 µM | 6.2 µM | 16.56 | 111.86 | 14.27 | 61.75 | 7.4 µM | disrupt Tpm3.1-containing actin microfilaments in a dose-dependent manner |
| O=C(Nc1ccc(F)cc1)c1ccn(S(=O)(=O)c2ccc3[nH]ccc3c2)c1 [Compound 48, 1-((1H-indol-5-yl)sulfonyl)-N-(4-fluorophenyl)-1H-pyrrole-3-carboxamide] | 2.5 µM | 3.3 µM | 14.9 µM | – | – | – | – | 31.55 | 263.84 | 17.28 | 68.74 | 7.56 µM | – |
| CCC(C)c1ccc(CCC2CCN(S(=O)(=O)c3cc(C(N)=O)n(C)c3)CC2)cc1 (stereo not shown) [Compound 34, 4-((4-(4-(sec-butyl)phenethyl)piperidin-1-yl)sulfonyl)-1-methyl-1H-pyrrole-2-carboxamide] | 5.4 µM | 3.2 µM | – | – | – | – | – | – | – | – | – | 46.2 µM | – |
| O=C(Nc1ccc(C(F)(F)F)cc1)c1ccn(S(=O)(=O)c2ccc3[nH]ccc3c2)n1 [Compound 78, 1-((1H-indol-5-yl)sulfonyl)-N-(4-(trifluoromethyl)phenyl)-1H-pyrazole-3-carboxamide] | 5.44 µM | 18.4 µM | – | – | – | – | – | – | – | – | – | 21.6 µM | – |
| N#Cc1ccc(NC(=O)c2ccn(S(=O)(=O)c3ccc4[nH]ccc4c3)c2)cc1 [Compound 67, 1-((1H-indol-5-yl)sulfonyl)-N-(4-cyanophenyl)-1H-pyrrole-3-carboxamide] | 6.23 µM | 14.1 µM | – | – | – | – | – | – | – | – | – | 15.7 µM | – |

The next lines start with results.

| IC50 [3] | IC50 [4] | IC50 [5, 10] | IC50 [5, 11] | IC50 [7] | IC50 [8] | IC50 [9] | SMILES | Max. Synergy, Paclitaxel [1] | Total Synergy, Paclitaxel [1] | Max. Synergy, Vinorelbine [1] | Total Synergy, Vinorelbine [1] | IC50 [2] | Disruption of Tpm3.1-containing actin microfilaments [6] |
| --- | --- | --- | --- | --- | --- | --- | --- | --- | --- | --- | --- | --- | --- |
| – | – | – | 0.004 µM | – | – | – | CC(=O)O[C@H]1C(=O)[C@@]2(C)[C@H]([C@H](OC(=O)c3ccccc3)[C@]3(O)C[C@H](OC(=O)[C@H](O)[C@@H](NC(=O)c4ccccc4)c4ccccc4)C(C)=C1C3(C)C)[C@]1(OC(C)=O)CO[C@@H]1C[C@@H]2O [paclitaxel, reference compound] | – | – | – | – | – | – |
| – | – | – | 0.004 µM | – | – | – | CCC1=C[C@@H]2CN(C1)Cc1c([nH]c3ccccc13)[C@@](C(=O)OC)(c1cc3c(cc1OC)N(C)[C@H]1[C@@](O)(C(=O)OC)[C@H](OC(C)=O)[C@]4(CC)C=CCN5CC[C@]31[C@@H]54)C2 [vinorelbine, reference compound] | – | – | – | – | – | – |
| 15.1 µM | 24.9 µM | 12 µM | – | – | – | – | CCC(C)c1ccc(NC(=O)C2CCN(S(=O)(=O)c3ccc4[nH]ccc4c3)CC2)cc1 (stereo not shown) [Compound 6, 1-((1H-indol-5-yl)sulfonyl)-N-(4-(sec-butyl)phenyl)piperidine-4-carboxamide] | 6.78 | −46.04 | 42.36 | 250.66 | 5.66 µM | – |
| 1.1 µM | 12.8 µM | – | – | – | – | – | CCc1cccc(NC(=O)c2ccn(S(=O)(=O)c3ccc4[nH]ccc4c3)c2)c1 [Compound 41, 1-((1H-indol-5-yl)sulfonyl)-N-(3-ethylphenyl)-1H-pyrrole-3-carboxamide] | – | – | – | – | 16.2 µM | – |
| 8.87 µM | 11 µM | – | – | – | – | – | CC(C)(C)c1ccc(NC(=O)c2ccn(S(=O)(=O)c3ccc4[nH]ccc4c3)c2)cc1 [Compound 100, 1-((1H-indol-5-yl)sulfonyl)-N-(4-(tert-butyl)phenyl)-1H-pyrrole-3-carboxamide] | – | – | – | – | 7.51 µM | – |
| > 100 µM | 19.9 µM | – | – | – | – | – | CCC(C)c1ccc(NC(=O)C2CCN(S(=O)(=O)c3ccc4c(c3)CCN4)CC2)cc1 (stereo not shown) [Compound 3, N-(4-(sec-butyl)phenyl)-1-(indolin-5-ylsulfonyl) piperidine-4-carboxamide] | – | – | – | – | 19.3 µM | – |
